Assay results reported in US12448395B2 (BRISTOL-MYERS SQUIBB COMPANY, priority 2019, dated 2025).

Target: T1, human TLR9 (Homo sapiens, UniProt Q9NR96)
T1 sequence (Q9NR96 26-1032): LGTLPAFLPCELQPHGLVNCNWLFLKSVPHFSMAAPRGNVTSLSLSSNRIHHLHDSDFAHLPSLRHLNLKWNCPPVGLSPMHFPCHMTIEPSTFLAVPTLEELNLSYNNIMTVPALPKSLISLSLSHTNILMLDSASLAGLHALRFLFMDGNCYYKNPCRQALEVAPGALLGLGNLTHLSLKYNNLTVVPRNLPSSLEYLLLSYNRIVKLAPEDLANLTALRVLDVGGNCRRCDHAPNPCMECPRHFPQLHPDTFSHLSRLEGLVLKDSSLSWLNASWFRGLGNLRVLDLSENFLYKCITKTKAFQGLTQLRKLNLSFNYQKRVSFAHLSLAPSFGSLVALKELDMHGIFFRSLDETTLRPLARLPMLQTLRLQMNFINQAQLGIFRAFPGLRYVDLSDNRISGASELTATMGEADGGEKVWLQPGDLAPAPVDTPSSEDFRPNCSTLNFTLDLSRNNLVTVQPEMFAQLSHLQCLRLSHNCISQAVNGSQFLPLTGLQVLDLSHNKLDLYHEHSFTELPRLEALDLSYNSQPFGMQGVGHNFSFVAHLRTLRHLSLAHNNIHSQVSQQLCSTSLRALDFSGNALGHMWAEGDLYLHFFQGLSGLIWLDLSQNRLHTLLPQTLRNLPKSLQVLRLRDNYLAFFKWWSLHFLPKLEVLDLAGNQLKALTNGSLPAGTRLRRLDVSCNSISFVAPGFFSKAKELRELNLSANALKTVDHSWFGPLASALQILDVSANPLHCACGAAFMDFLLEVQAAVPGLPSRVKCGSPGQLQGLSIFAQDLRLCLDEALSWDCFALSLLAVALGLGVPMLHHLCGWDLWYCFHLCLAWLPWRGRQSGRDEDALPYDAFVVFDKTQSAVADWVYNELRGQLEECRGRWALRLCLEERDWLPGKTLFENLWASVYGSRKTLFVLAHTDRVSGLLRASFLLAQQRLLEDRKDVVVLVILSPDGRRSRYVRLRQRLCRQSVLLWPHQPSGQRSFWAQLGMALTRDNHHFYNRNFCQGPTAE
Assay: TLR9 inhibition reporter assay (HEK-Blue SEAP, ODN2006 stimulation)
Type: cell-based
Settings: HEK-Blue cells overexpressing human TLR9, ODN2006 5 nM
Experimental: TLR7/8/9 Inhibition Reporter Assays
HEK-Blue™-cells (Invivogen) overexpressing human TLR7, TLR8 or TLR9 receptors were used for screening inhibitors of these receptors using an inducible SEAP (secreted embryonic alkaline phosphatase) reporter gene under the control of the IFN-β minimal promoter fused to five NF-κB and AP-1-binding sites. Briefly, cells are seeded into Greiner 384 well plates (15000 cells per well for TLR7, 20,000 for TLR8 and 25,000 for TLR9) and then treated with test compounds in DMSO to yield a final dose response concentration range of 0.05 nM-50 μM. After a 30 minute compound pre-treatment at room temperature, the cells are then stimulated with a TLR7 ligand (gardiquimod at a final concentration of 7.5 μM), TLR8 ligand (R848 at a final concentration of 15.9 μM) or TLR9 ligand (ODN2006 at a final concentration of 5 nM) to activate NF-κB and AP-1 which induce the production of SEAP. After a 22 hour incubation at 37° C., 5% CO2, SEAP levels are determined with the addition of HEK-Blue™ Detection reagent (Invivogen), a cell culture medium that allows for detection of SEAP, according to manufacturer's specifications. The percent inhibition is determined as the % reduction in the HEK-Blue signal present in wells treated with agonist plus DMSO alone compared to wells treated with a known inhibitor.

Compound	IC50 [µM]
CC(C)c1c(-c2cn(C)c3ncccc23)[nH]c2sc(C3CCN(C4COC4)CC3)nc12 [Example 34, 6-isopropyl-5-(1-methyl-1H-pyrrolo[2,3-b]pyridin-3-yl)-2-(1-(oxetan-3-yl)piperidin-4-yl)-4H-pyrrolo[3,2-d]thiazole]	> 50
Cc1c(-c2[nH]c3sc(C4CCN(C5COC5)CC4)nc3c2C(C)C)cn2ncnc2c1C [Example 43, 5-(7,8-dimethyl-[1,2,4]triazolo[1,5-a]pyridin-6-yl)-6-isopropyl-2-(1-(oxetan-3-yl)piperidin-4-yl)-4H-pyrrolo[3,2-d]thiazole]	> 50
Cc1c(-c2[nH]c3sc(C(N)=O)nc3c2C(C)C)cn2ncnc2c1C [Example 385, 5-(7,8-dimethyl-[1,2,4]triazolo[1,5-a]pyridin-6-yl)-6-isopropyl-4H-pyrrolo[3,2-d]thiazole-2-carboxamide]	> 50
Cc1c(-c2[nH]c3sc(C4CCN(CCS(C)(=O)=O)CC4)nc3c2C(C)C)cn2ncnc2c1C [Example 55, 5-(7,8-dimethyl-[1,2,4]triazolo[1,5-a]pyridin-6-yl)-6-isopropyl-2-(1-(2-(methylsulfonyl)ethyl)piperidin-4-yl)-4H-pyrrolo[3,2-d]thiazole]	> 50
Cc1c(-c2[nH]c3sc(N4CCN(CC(C)(C)O)C[C@@H]4C)nc3c2C(C)C)cn2ncnc2c1C [Example 345, (S)-1-(4-(5-(7,8-dimethyl-[1,2,4]triazolo[1,5-a]pyridin-6-yl)-6-isopropyl-4H-pyrrolo[3,2-d]thiazol-2-yl)-3-methylpiperazin-1-yl)-2-methylpropan-2-ol]	> 50
Cc1c(-c2[nH]c3sc(N4CC5(CN(CC6CCOCC6)C5)C4)nc3c2C(C)C)cn(C)c(=O)c1C [Example 307, 5-(6-isopropyl-2-(6-((tetrahydro-2H-pyran-4-yl)methyl)-2,6-diazaspiro[3.3]heptan-2-yl)-4H-pyrrolo[3,2-d]thiazol-5-yl)-1,3,4-trimethylpyridin-2 (1H)-one]	> 50
Cc1c(-c2[nH]c3sc(CN4CCNC(=O)C4)nc3c2C(C)C)cn2ncnc2c1C [Example 406, 4-((5-(7,8-dimethyl-[1,2,4]triazolo[1,5-a]pyridin-6-yl)-6-isopropyl-4H-pyrrolo[3,2-d]thiazol-2-yl)methyl) piperazin-2-one]	> 50
CC(C)c1c(-c2cn(C)c3ncccc23)[nH]c2sc(C3CCN(CC(N)=O)CC3)nc12 [Example 31, 2-(4-(6-isopropyl-5-(1-methyl-1H-pyrrolo[2,3-b]pyridin-3-yl)-4H-pyrrolo[3,2-d]thiazol-2-yl)piperidin-1-yl) acetamide]	> 50
CC(C)c1c(-c2cn(C)c3ncccc23)[nH]c2sc(C3CCN(C(=O)CN(C)C)CC3)nc12 [Example 32, 2-(dimethylamino)-1-(4-(6-isopropyl-5-(1-methyl-1H-pyrrolo[2,3-b]pyridin-3-yl)-4H-pyrrolo[3,2-d]thiazol-2-yl)piperidin-1-yl)ethan-1-one]	> 50
Cc1c(-c2[nH]c3sc(N4CCN(C5COC5)C[C@H]4C)nc3c2C(C)C)cn2ncnc2c1C [Example 316, (R)-5-(7,8-dimethyl-[1,2,4]triazolo[1,5-a]pyridin-6-yl)-6-isopropyl-2-(2-methyl-4-(oxetan-3-yl)piperazin-1-yl)-4H-pyrrolo[3,2-d]thiazole]	> 50
Cc1c(-c2[nH]c3sc(N4CCN(CCS(C)(=O)=O)C[C@H]4C)nc3c2C(C)C)cn2ncnc2c1C [Example 314, (R)-5-(7,8-dimethyl-[1,2,4]triazolo[1,5-a]pyridin-6-yl)-6-isopropyl-2-(2-methyl-4-(2-(methylsulfonyl)ethyl)piperazin-1-yl)-4H-pyrrolo[3,2-d]thiazole]	> 50
Cc1cc(-c2[nH]c3sc(C(=O)N4CCNC(=O)C4)nc3c2C(C)C)cn2ncnc12 [Example 392, 4-(6-isopropyl-5-(8-methyl-[1,2,4]triazolo[1,5-a]pyridin-6-yl)-4H-pyrrolo[3,2-d]thiazole-2-carbonyl)piperazin-2-one]	> 50
